Test results: ChEMBL document CHEMBL1128093, “Discovery and optimization of indole pyrrolothiazole paf antagonists” (Bioorg Med Chem Lett, 1995)

Experiments:
Assay type in all cases: functional
Rattus norvegicus [1] = assay: In vivo activity by inhibition of PAF-induced cutaneous vascular permeability in rats after intravenous administration
Rattus norvegicus [2] = assay: In vivo activity by inhibition of PAF-induced cutaneous vascular permeability in rats after peroral administration; conditions: po
Rattus norvegicus [3] = assay: In vivo activity by inhibition of PAF-induced cutaneous vascular permeability in rats after intravenous administration of 1 mg/kg dose
Rattus norvegicus [4] = assay: In vivo activity by inhibition of PAF-induced cutaneous vascular permeability in rats after peroral administration of 10 mg/kg dose; conditions: route oral
Rattus norvegicus [5] = assay: xIn vivo activity by inhibition of PAF-induced cutaneous vascular permeability in rats after peroral administration; conditions: po
Rattus norvegicus [6] = assay: In vivo activity by inhibition of PAF-induced cutaneous vascular permeability in rats after peroral administration of 30 mg/kg dose; conditions: route oral

Compound	ED50 (Rattus norvegicus [1])	ED50 (Rattus norvegicus [2])	other results
CN(C)C(=O)n1cc(C(=O)c2ccn3c2CSC3c2cccnc2)c2ccc(-c3ccccc3)cc21 (stereo not given)	0.03 mg/kg	0.06 mg/kg	
CN(C)C(=O)n1cc(C(=O)c2ccn3c2CSC3c2cccnc2)c2ccc(Br)cc21 (stereo not given)		1.5 mg/kg	inhibition in vivo at 1 mg/kg (Rattus norvegicus [3]): 41%
CNC(=O)n1cc(C(=O)c2ccn3c2CSC3c2cccnc2)c2ccc(-c3ccc(F)cc3)cc21 (stereo not given)		0.12 mg/kg	
CCNC(=O)n1cc(C(=O)c2ccn3c2CSC3c2cccnc2)c2ccc(-c3ccc(F)cc3)cc21 (stereo not given)	0.18 mg/kg		
CN(C)C(=O)n1cc(C(=O)c2ccn3c2CSC3c2cccnc2)c2ccc(-c3ccc(F)cc3)cc21 (stereo not given)	0.006 mg/kg	0.06 mg/kg	
CN(C)C(=O)n1cc(C(=O)c2ccn3c2CSC3c2cccnc2)c2ccc(-c3cccnc3)cc21 (stereo not given)			inhibition in vivo at 10 mg/kg (Rattus norvegicus [4]): 58%
CN(C)C(=O)n1cc(C(=O)c2ccn3c2CSC3c2cccnc2)c2ccc(Cl)cc21 (stereo not given)		1.4 mg/kg	inhibition in vivo at 1 mg/kg (Rattus norvegicus [3]): 42%
O=C(c1ccn2c1CSC2c1cccnc1)c1c[nH]c2cc(-c3ccc(F)cc3)ccc12 (stereo not given)		6.4 mg/kg	
NCCn1cc(C(=O)c2ccn3c2CSC3c2cccnc2)c2ccc(-c3ccc(F)cc3)cc21 (stereo not given)		1.3 mg/kg	
NC(=O)n1cc(C(=O)c2ccn3c2CSC3c2cccnc2)c2ccc(-c3ccc(F)cc3)cc21 (stereo not given)	0.01 mg/kg	0.06 mg/kg	
CN(C)S(=O)(=O)n1cc(C(=O)c2ccn3c2CSC3c2cccnc2)c2ccc(-c3ccc(F)cc3)cc21 (stereo not given)			ED50 (Rattus norvegicus [5]): 5.5 mg/kg
CN(C)C(=O)n1cc(C(=O)c2ccn3c2CSC3c2cccnc2)c2ccc(OCc3ccccc3)cc21 (stereo not given)		3.3 mg/kg	
O=C(c1ccn2c1CSC2c1cccnc1)c1cn(CCO)c2cc(-c3ccc(F)cc3)ccc12 (stereo not given)	0.1 mg/kg	0.76 mg/kg	
Cn1cc(C(=O)c2ccn3c2CSC3c2cccnc2)c2ccc(-c3ccc(F)cc3)cc21 (stereo not given)	0.09 mg/kg		
CN(C)C(=O)n1cc(C(=O)c2ccn3c2CSC3c2cccnc2)c2ccccc21 (stereo not given)			inhibition in vivo at 30 mg/kg (Rattus norvegicus [6]): 34%
CN(C)C(=O)n1cc(C(=O)c2ccn3c2CSC3c2cccnc2)c2ccc(Sc3ccc(F)cc3)cc21 (stereo not given)	0.27 mg/kg		
NNC(=O)n1cc(C(=O)c2ccn3c2CSC3c2cccnc2)c2ccc(-c3ccc(F)cc3)cc21 (stereo not given)	0.04 mg/kg	0.57 mg/kg	
O=C(O)CCn1cc(C(=O)c2ccn3c2CSC3c2cccnc2)c2ccc(-c3ccc(F)cc3)cc21 (stereo not given)	0.1 mg/kg	5.1 mg/kg	
CN(C)C(=O)n1cc(C(=O)c2ccn3c2CSC3c2cccnc2)c2ccc(Oc3ccc(F)cc3)cc21 (stereo not given)	0.03 mg/kg		
CN(C)C(=O)n1cc(C(=O)c2ccn3c2CSC3c2cccnc2)c2ccc(Cc3ccccc3)cc21 (stereo not given)	0.09 mg/kg		
CN(C)C(=O)Cn1cc(C(=O)c2ccn3c2CSC3c2cccnc2)c2ccc(-c3ccc(F)cc3)cc21 (stereo not given)	0.009 mg/kg	0.12 mg/kg	
